Read-outs that look alike come from different tables or passages of the source. Values belong to the compound of their own block, whether it stands above or below them.
Assays:
LN-229 = test: CellTiter-Glo cell proliferation assay, LN-229; type: cell-based; conditions: Homo sapiens, LN-229
Protocol: (§1) CellTiter-Glo® Luminescent Cell Viability assay (with Promega CellTiter 96® Luminescent CellTiter-Glo® kit) was used to study the proliferation inhibition by test compounds. Compounds were resuspended in DMSO to make a 25 mM stock suspension. Cells of cancer cell lines or normal tissues were seeded in 96-well plates at 1,500 to 5,000 cells/well overnight. Compounds were 2- or 3-fold diluted serially to obtain 10 concentrations. Then, the drugs were added to the cell wells by Bravo (Agilent) and incubated for 72 hours. The cells were lysed by adding CellTiter-Glo® Reagent (per manufacturer's instructions) and subsequently, the luminescence was read using EnVision® (PerkinElmer).
(§2) The percent of growth was calculated as follows. DMSO-treated cells were employed as vehicle control (High control, HC) and culture medium alone was employed as background (Low control, EC). % growth=100×(Lum sample−Lum EC)/(Lum HC−Lum EC). The ICso was calculated by concentration-response curve fitting using Graphpad Prism.
(§3) Hematological cancer cell lines tested included OCI-AML3, MV-4-11, KG-1, Kasumi-1, K562, THP-1; solid cancer cell lines tested included U87MG, U251, T98G, LN229, A172, H460, H2009, A549; normal cell lines tested included HCN2 and 3T3-L1. […] However, they were not toxic to in vitro cultured normal cells.

[1] = Pharmacokinetic profile in plasma; type: in vivo; conditions: mouse, iv, I. V., mice
XPO1 = XPO1 (Homo sapiens, UniProt O14980); test: REV-GFP translocation assay in U2OS cells; type: cell-based; set-up: endogenous in cells; host or cells: U2OS cells stably expressing REV-GFP (clones from HD Biosciences); conditions: for IC50: Table 10
XPO1, sequence (O14980 whole entry): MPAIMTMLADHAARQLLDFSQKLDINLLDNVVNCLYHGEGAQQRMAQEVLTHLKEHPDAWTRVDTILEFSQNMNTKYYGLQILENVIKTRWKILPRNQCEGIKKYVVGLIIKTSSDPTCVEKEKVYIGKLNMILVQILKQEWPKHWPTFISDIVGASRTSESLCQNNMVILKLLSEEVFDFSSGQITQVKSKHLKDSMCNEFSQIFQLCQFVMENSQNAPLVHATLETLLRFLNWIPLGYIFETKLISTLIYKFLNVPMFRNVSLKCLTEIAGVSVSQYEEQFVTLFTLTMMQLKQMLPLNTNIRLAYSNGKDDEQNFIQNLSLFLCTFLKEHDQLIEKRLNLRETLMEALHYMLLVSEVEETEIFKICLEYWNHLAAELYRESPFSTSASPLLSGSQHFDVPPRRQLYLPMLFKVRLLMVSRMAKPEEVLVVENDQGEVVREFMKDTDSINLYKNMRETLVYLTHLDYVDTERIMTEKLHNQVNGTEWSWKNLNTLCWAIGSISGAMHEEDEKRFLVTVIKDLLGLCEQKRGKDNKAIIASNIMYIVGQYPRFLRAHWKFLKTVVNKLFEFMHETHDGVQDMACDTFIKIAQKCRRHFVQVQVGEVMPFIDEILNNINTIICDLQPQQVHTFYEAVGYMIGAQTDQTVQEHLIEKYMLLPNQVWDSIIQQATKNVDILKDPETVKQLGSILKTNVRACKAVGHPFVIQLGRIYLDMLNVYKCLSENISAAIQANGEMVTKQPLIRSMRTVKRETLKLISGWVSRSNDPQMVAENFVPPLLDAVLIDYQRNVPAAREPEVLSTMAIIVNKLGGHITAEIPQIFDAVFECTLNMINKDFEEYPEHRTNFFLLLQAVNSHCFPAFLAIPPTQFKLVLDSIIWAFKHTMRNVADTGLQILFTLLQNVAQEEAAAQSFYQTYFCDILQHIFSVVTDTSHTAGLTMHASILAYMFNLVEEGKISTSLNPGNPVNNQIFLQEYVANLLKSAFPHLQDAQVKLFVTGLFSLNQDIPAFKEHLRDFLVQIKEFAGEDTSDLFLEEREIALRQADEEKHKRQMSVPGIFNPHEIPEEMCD
Protocol: LTD in China, and cells were cultured with growth medium. […] The highest Leptomycin B (LMB) concentration was set to 50 nM and serially diluted as the positive control, while the highest concentrations of other compounds were set to 10 μM. The cells treated with various drugs or DMSO, were incubated at 37° C. and 5% CO2 for 1 h. Then, cells were fixed with 4% formaldehyde for 15 min at room temperature. The cells were washed and stained with 100 μL Hoechst 33342 working solution for 10 min at room temperature in dark, after which the cell fluorescence was imaged with the High-Content Imaging System, ImageXpress® (Molecular Devices) using the 20× objective. The filters were set for Hoechst (350/461 nm) and GFP/FITC (488/509 nm) (wavelength for excitation and emission maxima). The % effect of REV nuclear translocation was calculated with the following formula: % effect=([…]- signals from testing compounds; ILMB-signals of 50 nM LMB group; ICTRL-signals of vehicle control group.

Ratio of brain to plasma = type: in vivo; conditions: rats, 10 mg/kg PO
Protocol: (§4) Following collection, brain tissue was rinsed with cold saline, dried on filter paper, weighed and snap-frozen by placing on dry ice. All samples were stored frozen at approximately −80° C. until analysis. At the time of analysis, brain tissue was homogenized (homogenizing solution PBS, pH 7.4), mixed with internal standard in acetonitrile, vortexed, centrifuged, and supernatant was injected for analysis. Concentration of compounds in plasma was determined using LC-MS-MS instrumentation (API 4000, Triple Quadrupole LC/MS/MS Mass Spectrometer). Plasma samples were treated with the identical method (except homogenization step) and the concentration of compound in each matrix was calculated based on generated standard curves.

HCN2 = test: CellTiter-Glo cell proliferation assay, HCN2 (normal brain); type: cell-based
Protocol: as §1, §2, §3

U251 = test: CellTiter-Glo cell proliferation assay, U251; type: cell-based; conditions: Homo sapiens, U-251
Protocol: as §1, §2, §3

[2] = Pharmacokinetic profile summary; type: in vivo, mice or rats; conditions: for Cmax / AUC: po; for half-life: mice or rats
Protocol: (§5) Blood was collected from mice (n=3, or 5) to contribute to the total of 10 time points (pre-dose, 5 min, 15 min, 30 min, 1 hour, 2 hours, 4 hours, 8 hours, 12 hours and 24 hours). At the designated time points, animals were anaesthetized under isoflurane, and approximately 110 μL of blood per time point was collected via retro-orbital puncture into pre-cooled K2EDTA tubes. Blood samples were put on wet ice and centrifuged (2000 g, 5 min at 4° C.) to obtain plasma within 30 minutes of sample collection. All samples were stored frozen at approximately −80° C. until analysis. Prior to analysis, samples were mixed with internal standard in acetonitrile, vortexed, centrifuged, and supernatant was injected for analysis. Concentration of compounds in plasma was determined using LC-MS-MS instrumentation (API 4000, Triple Quadrupole LC/MS/MS Mass Spectrometer). AUC values were calculated using Phoenix Win Nonlin 6.3 software package, PO-Noncompartmental model 200 (extravascular input).
as §4
The pharmacokinetic profile of test compounds in mice or rats was determined from several test compounds was determined using the methods described in Example 22.

[3] = Pharmacokinetic profile in plasma; type: in vivo; conditions: P.O., mice
Protocol: as §5

U87MG = test: CellTiter-Glo cell proliferation assay, U87MG; type: cell-based, human; conditions: Homo sapiens, U-87 MG
Protocol: as §1, §2, §3

T98G = test: CellTiter-Glo cell proliferation assay, T98G; type: cell-based; conditions: Homo sapiens, T98G
Protocol: as §1, §2, §3

U87MG cells = test: Capase-Glo 317 apoptosis assay; type: cell-based; conditions: Homo sapiens, U-87 MG, 72 hours
Protocol: A Capase-Glo® 317 assay was used to determine the apoptosis activity of test compounds in U87MG cells.
Compounds were dissolved in 25 mM DMSO stock solution and serially diluted. DMSO was used as the vehicle control (high control, HC) and culture medium was used as the background (low control LC). The test compounds were applied to plates and spun at 25° C. at 1,000 RPM for 1 min and shaken on a plate shaker for 2 min. Samples (80 nL) of the compounds from the plates were transferred to 384-well cell culture plates using a liquid handler.
Cells were harvested and the cell numbers counted. 40 μL of the cell suspension with the adjusted density was added to 384-well cell culture pates. The final cell density is 1,000 cells/well. Cell culture medium only was used in the low control (LC) samples. The plates were covered with a lid and placed in a 5% CO2 incur at 37° C. for 72 hours.
After incubating for 72 hours, the plates were removed from the incubator and equilibrated at 25° C. for 15 minutes. CellTiter Glo® regen was incubated at 37° C. before the experiments. 40 μL of Capase-Glo® 317 was added into each well to be detected at a 1:1 ratio to culture medium. The plates were then placed at 25° C. for 30 min and read using an EnSpire® Plate Reader.
The % activity remaining was determined using the following formula: % Remaining Activity=[…]×(Lumsample−LumLC)/(LumHC−LUM LC), where HC is obtained from cells treated with 0.1% DMSO only, LC is obtained from culture medium only.

C8-B4 = test: Cytotoxicity, cell proliferation assay, C8-B4; type: cell-based; conditions: Table 8
Protocol: as §1, §2
(§6) The cytotoxicity of test compounds in brain (HCN2), colon cancer (HCT116) and normal colon cell (C8-B4) lines was determined using the cell proliferation assay as described in Example 19.

[4] = 25 mg/kg p.o., qod x 3 per week, two weeks; BALB/c Nude mice
3T3 = test: Cytotoxicity, cell proliferation assay, 3T3; type: cell-based; conditions: Mus musculus, NIH3T3; Table 9
Protocol: as §1, §2
The cytotoxicity of test compounds was also determined in glioblastoma (U87MG)), brain (HCN2) and 3T3 cell lines was determined using the cell proliferation assay as described in Example 19.

CRM1 = target: T1, CRM1 (Homo sapiens, UniProt O14980); test: PD effects by IHC in U87MG-luc orthotopic model, CRM1; type: in vivo, mice; conditions: orally three times a week for 2 weeks; vs vehicle control
T1 construct: from tissue; host or cells: U87MG-luc orthotopic xenograft tumours in mouse brain
T1 sequence (O14980 whole entry): as above
Protocol: (§7) Based on the bioluminescent signal of tumor, mice were randomly assigned to respective groups using a computer-generated randomization procedure, which included vehicle and compound III-treated groups, respectively, with 5 animals per group. Compound III (20 mg/kg) was given orally 3 times a week (on Day 1, 3, 5) for 2 weeks. Animals for IHC study were euthanized at 6 hours after the last dose and perfused with normal saline followed by fixation with 4% paraformaldehyde. Entire brains containing tumors were collected and kept in fixative for 24 hours before proceeding for paraffin block.

in vivo = conditions: female, BALB/c Nude, mouse
3T3-L1 = test: CellTiter-Glo cell proliferation assay, 3T3-L1 (normal); type: cell-based; conditions: Mus musculus, 3T3-L1; Table 6; read-out: 3T3-L1 IC50
Protocol: as §1, §2, §3

HCT116 = test: Cytotoxicity, cell proliferation assay, HCT116 colon cancer; type: cell-based; conditions: Table 8
Protocol: as §1, §2, §6

Ki67 = test: PD effects by IHC in U87MG-luc orthotopic model, Ki67; type: in vivo, mice; conditions: orally three times a week for 2 weeks; vs vehicle control
Protocol: as §7

A-172 = test: CellTiter-Glo cell viability assay, A-172; type: cell-based; conditions: Homo sapiens, Table 6
Protocol: as §1, §2
The inhibition activity of test compounds was determined in A-172, U87MG and 3T3-L1 cell lines.
A CellTiter-Glo® luminescent cell viability assay was performed s described in Example 1.

[5] = Table 11, read-out: Absolute IC50 (μM) LN-229
[6] = 72 hours, Table 1, read-out: Growth inhibition (IC50)
[7] = Table 11, read-out: Absolute IC50 (μM) U251
[8] = 10 mg/kg, plasma, 10 mpk, read-out: Cmax (ng/ml) plasma/10 mpk
[9] = Table 9, first value column, read-out: U87MG IC50
[10] = Table 9, second value column, read-out: U87MG IC50
[11] = Table 11, read-out: Absolute IC50 (μM) T98G

AUC(0-t) [1]: 1620 ng·h/mL
C0 [1]: 558 ng/mL
clearance [1]: 10 mL/min/kg
half-life [1]: 3.82 h
MRT last ([1]; read-out: MRT0-last): 4.76 h
Vd ([1]; read-out: Vdss): 3.2 L/kg
EC50 (XPO1; REV-EGFP U2OS cells, 1 h, Table 2, read-out: Rev-GFP/EC50): 0.0285 µM
IC50 (XPO1; first (or only) value of the cell): 35.2 nM
IC50 (XPO1; second value of the cell): 21.8 nM
EC50 (XPO1; Table 13, read-out: Rev-GFP assay/μM): 0.035 µM
Kp at 0.25 h (Ratio of brain to plasma; rat, brain/plasma, 0.25 h): 0.716
Kp at 1 h (Ratio of brain to plasma; rat, brain/plasma, 1 h): 0.954
Kp at 8 h (Ratio of brain to plasma; rat, brain/plasma, 8 h): 1.4
brain concentration (second number of pair) (Ratio of brain to plasma; 0.25 h): 301 ng/g
plasma concentration (first number of pair) (Ratio of brain to plasma; 0.25 h): 419 ng/g
brain concentration (second number of pair) (Ratio of brain to plasma; 1 h): 1191 ng/g
plasma concentration (first number of pair) (Ratio of brain to plasma; 1 h): 1274 ng/g
brain concentration (second number of pair) (Ratio of brain to plasma; 8 h): 937 ng/g
plasma concentration (first number of pair) (Ratio of brain to plasma; 8 h): 677 ng/g
IC50 (U251; [7]): 2.3 µM
IC50 (U251; U251, 72 hours, Table 1, read-out: Growth inhibition (IC50)): 2.34 µM
Kp ([2]; mouse, brain/plasma, 5 mpk/mice/AUC Ratio, read-out: B/P ratio): 1.58
Cmax ([2]; mouse, 5 mg/kg, 5 mpk/mice, first number of Plasma/brain pair, read-out: Cmax/(ng/mL) Plasma): 1040 ng/mL
Cmax ([2]; mouse, 5 mg/kg, 5 mpk/mice, second number of Plasma/brain pair, read-out: Cmax/(ng/mL) brain): 1770 ng/mL
AUC ([2]; plasma, 10 mg/kg, 10 mpk): 4150 ng·h/mL
half-life ([2]; plasma): 6.9 h
Cmax [2, 8]: 796 ng/mL
AUG0-inf [3]: 13905 ng·h/mL
Cmax ([3]; mouse, po): 1600 ng/mL
Tmax ([3]; mouse, po): 2 h
half-life ([3]; mouse, po): 4.72 h
MRT inf ([3]; mouse, po, read-out: MRT0-inf): 7.84 h
MRT last ([3]; mouse, po, read-out: MRT0-last): 6.9 h
IC50 (U87MG; 72 h, U87MG, 72 hours, Table 1, read-out: Growth inhibition (IC50)): 630 nM
IC50 (U87MG; [9]): 537 nM
IC50 (U87MG; [10]): 723 nM
Structure (SMILES): O=C(/C=C\n1cnc(-c2cc(C(F)(F)F)cc(S(F)(F)(F)(F)F)c2)n1)NNc1ccccn1 [Compound II, (Z)-3-(3-(3-(Pentafluorosulfanyl)-5-(trifluoromethyl)phenyl)-1H-1,2,4-triazol-1-yl)-N′-(pyridin-2-yl)acrylohydrazide]
IC50 (LN-229; [5]): 0.8 µM
IC50 (LN-229; [6]): 0.805 µM
IC50 (HCN2; 72 h, HCN2 normal cell line, 72 hours, Table 1, read-out: Growth inhibition (IC50)): 44700 nM
IC50 (HCN2; Table 9, read-out: HCN2 IC50): 44700 nM
IC50 (T98G; [11]): 1.9 µM
IC50 (T98G; [6]): 1.92 µM

Structure (SMILES): O=C(/C=C\n1cnc(-c2cc(C(F)(F)F)cc(C(F)(F)F)c2)n1)NNc1cnccn1 [KPT-330, (Z)-3-(3-(3,5-bis(trifluoromethyl)phenyl)-1H-1,2,4-triazol-1-yl)-N′-(pyrazin-2-yl)acrylohydrazide, reference compound]
IC50 (LN-229; [5]): 0.3 µM
EC50 (U87MG cells): 12600 nM
Emax (U87MG cells; U87MG): 398%
IC50 (C8-B4; C8-B4): 1270 nM
C8-B4 Max % inh (C8-B4): 100%
survival in MTD study [4]: all mice were dead, or anaesthetized for the weight lost up to 20%
IC50 (3T3): > 50000 nM
HCN2 Max % inh (HCN2; Table 8): 99%
IC50 (HCN2; Table 8, read-out: HCN2 IC50): 30700 nM
IC50 (HCN2; Table 9, read-out: HCN2 IC50): 34200 nM
expression of CRM1 in tumors (IHC) (CRM1): significantly decreased
MTD (in vivo): 15 mg/kg
IC50 (U251; [7]): 1 µM
IC50 (3T3-L1): > 50000 nM
IC50 (HCT116; Homo sapiens, HCT-116): 2130 nM
HCT116 Max % inh (HCT116): 98%
expression of Ki67 in tumors (IHC) (Ki67): significantly decreased
IC50 (A-172): 224 nM
AUC ([2]; plasma, 10 mg/kg, 10 mpk): 8420 ng·h/mL
half-life ([2]; plasma): 1.7 h
Cmax [2, 8]: 2520 ng/mL
IC50 (U87MG; Table 6, read-out: U87MG IC50): 129 nM
IC50 (U87MG; [9]): 520 nM
IC50 (U87MG; [10]): 710 nM
IC50 (T98G; [11]): 0.8 µM
